Measurements as given in US20240050409A1, “Methods and Compositions for Treating Psychotic Disorders” (SOUND PHARMACEUTICALS INCORPORATED, priority 2014, published 2024).

What was measured:
[1] = system: 8-oxo-dG staining in the PFC of NVHL rats; assay: 8-oxo-dG labeling (DNA oxidation) in PFC of NVHL rats; format: in vivo, Sprague-Dawley rats
Description: To assess oxidative stress, DNA oxidation with 8-oxo-7,8-dihydro-20-deoxyguanine (8-oxo-dG) labeling was quantified. […] 3-NT indicates nitration of proteins due to oxidative and nitrosative stress (Radi, 2004), and its increase in NVHL rats was prevented by NAC treatment during development (as shown in FIGS. 9A and 9B). […] A possible explanation for the levels of oxidative stress detected in the adult PFC following an NVHL is the reduced glutamatergic input from ventral hippocampus during development, as blocking NMDA receptors induces oxidative stress in PVI (Behrens et al., 2007).
To determine the types of interneurons expressing oxidative stress in NVHL rats, 8-oxo-dG with PV, calbindin (CB) and calretinin (CR) was co-labeled. […] About 50% of PVI were co-labeled with 8-oxo-dG, indicating oxidative stress is pervasive in this cell population. A marker of PVI maturation is Wisteria Floribunda agglutinin (WFA), a lectin that recognizes the perineuronal nets (PNN) enwrapping mature cortical PVI. […] PVI may be highly exposed to increased oxidative stress because they make up the majority of fast-spiking interneurons and their high energy metabolism may generate more reactive oxygen species than non-fast spiking neurons.
Animals: Timed-pregnant Sprague-Dawley rats were obtained at gestational days 13-15 from Charles River (Wilmington, MA) and were individually housed with free access to food and water in a temperature- and humidity-controlled environment with a 12:12h light/dark cycle (lights on at 7:00 AM). When pups reached P5, half of the dams received NAC in their drinking water. Pups were left undisturbed until P7-9 when healthy offspring were randomly separated and received either NVHL or sham surgery. At P21, male and female pups were either transcardially perfused with 4% paraformaldehyde for immunocytochemistry or weaned and housed in groups of two to three, counterbalanced across lesion status. NAC treatment lasted throughout adolescence until P50. After reaching adulthood (>P60), animals were either perfused with 4% paraformaldehyde for immunocytochemistry, perfused with artificial cerebrospinal fluid (aCSF) for slice electrophysiology, utilized for in vivo intracellular recordings, or tested for PPI or MMN.
Neonatal ventral hippocampal lesion surgery: Between P7 and P9, pups (15-20 g) received either an excitotoxic lesion of the ventral hippocampus (NVHL) or sham procedure, as previously described (Chambers and Lipska, 2011). Pups were anesthetized with hypothermia and secured to a Styrofoam platform attached to a stereotaxic frame (David Kopf Instruments, Tujunga, CA). […]

SZ = settings: in vivo; cited from earlier work

## CC(=O)N[C@@H](CS)C(=O)O [NAC, N-acetyl cysteine]
[1]; NVHL rats, developmental treatment
  effect on 8-oxo-dG labeling in PV interneurons: prevented
[1]; P21 NVHL rats, drinking water 900 mg/l from P5
  effect on increase in 8-oxo-dG staining in PFC: completely prevented
[1]; P61 NVHL rats, drinking water 900 mg/l, P5 to P50
  effect on increase in 8-oxo-dG in PFC: prevented
[1]; adult NVHL rats, juvenile treatment, to levels comparable to control rats
  multiple markers of oxidative stress: decreased
SZ
  mismatch negativity in SZ: improved
